What was measured:
[1] = system: LPS-induced pulmonary inflammation; assay: LPS-induced pulmonary inflammation in mice
[2] = system: aqueous humor protein after paracentesis; assay: Ocular inflammation (paracentesis) in rabbits; type: in vivo, rabbit; details: 0.01% RTA 408 in the formulation, instillation
Method: Each rabbit was given three instillations within 60 min before induction of paracentesis and two instillations within 30 min after induction of paracentesis. Each instillation was 50 μL and given in both eyes. Aqueous humor for 6 animals per time-point was collected 30 min and again 2 h after induction of paracentesis. The amount of inflammation was determined by protein concentration in the aqueous humor.

[3] = system: fractionated radiation dermatitis; assay: Fractionated radiation dermatitis in Balb/c mice; type: in vivo, mouse; details: for % Days ≧ 2 (dermatitis score) / % Days ≧ 3 (dermatitis score): 6 × 10 Gy
Method: The mice were irradiated on days 0-2 and 5-7 with six 10-Gy doses […]. Clinical dermatitis scores for the mice were evaluated blindly every two days from day 4 until the end of the study. […] Study and treatment parameters can be found in Table 6.
By analyzing the average clinical scores that were shown in FIG. 46, an area under the curve (AUC) analysis was performed, which yielded the severity of the dermatitis relative to how long the dermatitis persisted.

CYP2C19 = CYP2C19 (Homo sapiens, UniProt P33261); assay: CYP450 inhibition in pooled human liver microsomes, CYP2C19; type: in vitro ADME; details: highest concentration tested (3 μM)
From the text: (§1) In addition, there was little or no evidence of metabolism-dependent inhibition of any of the enzymes tested.

[4] = system: NQO1 and HMOX1 protein in BV2 cells; assay: Western blot of Nrf2 target proteins in BV2; type: cell-based, mouse; details: BV2, 24 h
Method: SH-SY5Y cells were plated in 6-well plates at a density of 4×10^5 cells per well. BV-2 cells were plated in 6-well plates at a density of 2.5×10^4 cells per well. […] Following treatment, cells were washed twice with cold PBS and harvested in lysis buffer. Cells were sonicated and debris was cleared by centrifugation (10 min @ 18,000 rcf, Beckman Coulter, microfuge 18 centrifuge). Total protein in supernatant was quantified using Bio-Rad protein reagent with BSA as a standard. Equal amounts of total cellular protein were separated on SDS-PAGE, and proteins were transferred to nitrocellulose membrane. Membranes were blocked for 1 hour in TBST (1×TBS with 0.1% Tween-20) containing 5% milk, washed 3 times with TBST, and incubated with primary antibodies overnight at 4° C. NQO1 antibody was from Abcam (#AB2346); HMOX1 (HO-1) antibody was from Santa Cruz (#sc-10789); actin antibody was from Millipore (#MAB 1501). After washing with TBST, secondary antibodies were added in TBST+5% milk for 1 h at room temperature. AffiniPure goat anti-rabbit or anti-mouse IgG secondary antibodies were from Jackson ImmunoResearch (catalog #111-035-144 and #115-035-146, respectively). Membranes were washed in TBST, developed using ECL, and exposed to X-ray film. […] HMOX1 protein was not detected in untreated or RTA 408-treated SH-SY5Y cells. […] The same amount of 63170 (54.6 nM) was required.

[5] = system: acute radiation dermatitis; assay: Acute radiation dermatitis in BALB/c mice; type: in vivo, mouse
CYP3A4/5 = assay: CYP450 inhibition in pooled human liver microsomes, CYP3A4/5; type: in vitro ADME; details: read-out: Ki, direct inhibition of CYP3A4/5
From the text: as §1

[6] = system: LPS-induced NO (plasma NOx, Griess Reaction); assay: Suppression of NO in vivo after LPS in CD-1 mice; set-up: species or system mouse; details: LPS 5 mg/kg 24 h later
Method: FIG. 51—Dose-dependent suppression of NO in vivo by 63415. CD-1 mice (n=6) were dosed with DMSO or […] by oral gavage. LPS (5 mg/kg) was administered 24 h later. Twenty-four hours after LPS administration, whole blood was collected for NO assay. NO inhibition was determined by Griess Reaction from reduced, de-proteinated plasma.

CYP2D6 = CYP2D6 (Homo sapiens, UniProt P10635); assay: CYP450 inhibition in pooled human liver microsomes, CYP2D6; type: in vitro ADME; details: highest concentration tested (3 μM)
From the text: as §1

CYP2D6, sequence (P10635 whole entry): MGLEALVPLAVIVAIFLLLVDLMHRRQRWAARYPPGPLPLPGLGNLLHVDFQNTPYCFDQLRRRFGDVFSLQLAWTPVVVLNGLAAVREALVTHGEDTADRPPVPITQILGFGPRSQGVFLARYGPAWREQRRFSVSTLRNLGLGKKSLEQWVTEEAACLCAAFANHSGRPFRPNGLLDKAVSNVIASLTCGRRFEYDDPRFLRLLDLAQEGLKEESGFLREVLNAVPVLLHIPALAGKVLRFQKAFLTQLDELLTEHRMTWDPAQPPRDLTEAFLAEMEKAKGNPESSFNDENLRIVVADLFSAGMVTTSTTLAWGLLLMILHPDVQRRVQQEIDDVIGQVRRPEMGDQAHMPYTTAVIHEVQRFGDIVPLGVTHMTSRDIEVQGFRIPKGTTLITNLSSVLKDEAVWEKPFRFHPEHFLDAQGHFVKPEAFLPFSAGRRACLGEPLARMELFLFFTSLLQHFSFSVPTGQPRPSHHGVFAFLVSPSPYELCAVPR
CYP2C19, sequence (P33261 whole entry): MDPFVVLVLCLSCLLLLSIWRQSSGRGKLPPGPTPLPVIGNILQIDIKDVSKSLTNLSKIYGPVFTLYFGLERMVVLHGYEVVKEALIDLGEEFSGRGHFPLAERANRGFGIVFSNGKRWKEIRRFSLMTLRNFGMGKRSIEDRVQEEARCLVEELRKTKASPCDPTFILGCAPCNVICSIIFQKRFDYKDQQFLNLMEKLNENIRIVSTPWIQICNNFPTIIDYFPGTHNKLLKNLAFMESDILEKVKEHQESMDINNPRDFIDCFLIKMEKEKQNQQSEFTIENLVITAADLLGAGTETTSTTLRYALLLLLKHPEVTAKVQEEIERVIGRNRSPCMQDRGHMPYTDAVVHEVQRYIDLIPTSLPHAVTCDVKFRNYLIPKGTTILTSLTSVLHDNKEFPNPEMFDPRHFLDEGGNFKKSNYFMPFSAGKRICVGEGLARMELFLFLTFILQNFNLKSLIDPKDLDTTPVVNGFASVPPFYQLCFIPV

CC1(C)CC[C@]2(NC(=O)C(C)(F)F)CC[C@]3(C)[C@H](C(=O)C=C4[C@@]5(C)C=C(C#N)C(=O)C(C)(C)[C@@H]5CC[C@]43C)[C@@H]2C1 [RTA 408, N-((4aS,6aR,6bS,8aR,12aS,14aR,14bS)-11-cyano-2,2,6a,6b,9,9,12a-heptamethyl-10,14-dioxo-1,2,3,4,4a,5,6,6a,6b,7,8,8a,9,10,12a,14,14a,14b-octadecahydropicen-4a-yl)-2,2-difluoropropanamide]
BALF cytokines, second study ([1]; 10 mg/kg daily for six days): Significant reductions in TNF-α | BALF cytokines, second study ([1]; 30 mg/kg daily for six days): significant reductions in IL-12p40, TNF-α, and RANTES | Body weight, second study ([1]; 100 mg/kg daily, starting on Day 3): significant decreases in body weight | Lung NQO1 enzyme activity (with increases in total GSH), second study ([1]; 10 and 30 mg/kg): significant induction of NQO1 enzyme activity | BALF pro-inflammatory markers, first study ([1]; 30, 100, or 150 mg/kg orally once daily for three days): significant reduction in IL-12p40 at all doses and in TNF-α at the 100 and 150 mg/kg doses | Peak reductions in TNF-α, IL-6, and IL-12 in BALF ([1]; QD×3, LPS 1 h after last dose, BALB/c mice): 50%-80% | Aqueous humor protein [2]: reduction in aqueous humor protein similar to that of the highest concentration of any of the other reference compounds | Average clinical dermatitis score ([3]; 0.1% to 1% topical formulations): statistically significant improvement in the scores | % Days ≧ 2 (dermatitis score) ([3]; topical 0.01%): 54% | % Days ≧ 3 (dermatitis score) ([3]; topical 0.01%): 29% | % Days ≧ 2 (dermatitis score) ([3]; topical 0.1%): 40% | % Days ≧ 3 (dermatitis score) ([3]; topical 0.1%): 13% | % Days ≧ 3 (dermatitis score) ([3]; topical 1%, vehicle 33%): 6% | % Days ≧ 2 (dermatitis score) ([3]; topical 1%, vehicle 60%): 21% | inhibition at 3 µM (CYP2C19): < 50% | NQO1 and HMOX1 protein levels [4]: increased NQO1 and HMOX1 protein levels at concentrations up to 125 nM | % animal-days >=2 ([5]; oral 3 mg/kg): 32.5% | % animal-days >=3 ([5]; oral 3 mg/kg): 1.3% | % mice scored above 3 in clinical dermatitis exam, Day 16 ([5]; oral 3 mg/kg): 10% | % mice scored above 3 in clinical dermatitis exam, Day 18 ([5]; oral 3 mg/kg): 10% | % mice scored above 3 in clinical dermatitis exam, Day 20 ([5]; oral 3 mg/kg): 0% | % mice scored above 3 in clinical dermatitis exam, Day 22 ([5]; oral 3 mg/kg): 0% | % mice scored above 3 in clinical dermatitis exam, Day 24 ([5]; oral 3 mg/kg): 0% | % mice scored above 3 in clinical dermatitis exam, Day 26 ([5]; oral 3 mg/kg): 0% | % mice scored above 3 in clinical dermatitis exam, Day 28 ([5]; oral 3 mg/kg): 0% | % animal-days >=2 ([5]; oral 10 mg/kg): 33.8% | % animal-days >=3 ([5]; oral 10 mg/kg): 4.1% | % mice scored above 3 in clinical dermatitis exam, Day 16 ([5]; oral 10 mg/kg): 10% | % mice scored above 3 in clinical dermatitis exam, Day 18 ([5]; oral 10 mg/kg): 25% | % mice scored above 3 in clinical dermatitis exam, Day 20 ([5]; oral 10 mg/kg): 30% | % mice scored above 3 in clinical dermatitis exam, Day 22 ([5]; oral 10 mg/kg): 0% | % mice scored above 3 in clinical dermatitis exam, Day 24 ([5]; oral 10 mg/kg): 0% | % mice scored above 3 in clinical dermatitis exam, Day 26 ([5]; oral 10 mg/kg): 0% | % mice scored above 3 in clinical dermatitis exam, Day 28 ([5]; oral 10 mg/kg): 0% | % animal-days >=2 ([5]; oral 30 mg/kg): 28.8% | % animal-days >=3 ([5]; oral 30 mg/kg): 2.5% | % mice scored above 3 in clinical dermatitis exam, Day 16 ([5]; oral 30 mg/kg): 10% | % mice scored above 3 in clinical dermatitis exam, Day 18 ([5]; oral 30 mg/kg): 20% | % mice scored above 3 in clinical dermatitis exam, Day 20 ([5]; oral 30 mg/kg): 10% | % mice scored above 3 in clinical dermatitis exam, Day 22 ([5]; oral 30 mg/kg): 0% | % mice scored above 3 in clinical dermatitis exam, Day 24 ([5]; oral 30 mg/kg): 0% | % mice scored above 3 in clinical dermatitis exam, Day 26 ([5]; oral 30 mg/kg): 0% | % mice scored above 3 in clinical dermatitis exam, Day 28 ([5]; oral 30 mg/kg): 0% | % animal-days >=2 ([5]; topical 0.01% in sesame oil): 14.4% | % animal-days >=3 ([5]; topical 0.01% in sesame oil): 0.0% | % mice scored above 2 in clinical dermatitis exam, Day 12 ([5]; topical 0.01% in sesame oil): 0.0% | % mice scored above 2 in clinical dermatitis exam, Day 14 ([5]; topical 0.01% in sesame oil): 0.0% | % mice scored above 2 in clinical dermatitis exam, Day 16 ([5]; topical 0.01% in sesame oil): 20.0% | % mice scored above 2 in clinical dermatitis exam, Day 18 ([5]; topical 0.01% in sesame oil): 50.0% | % mice scored above 2 in clinical dermatitis exam, Day 20 ([5]; topical 0.01% in sesame oil): 10.0% | % mice scored above 2 in clinical dermatitis exam, Day 22 ([5]; topical 0.01% in sesame oil): 40.0% | % mice scored above 2 in clinical dermatitis exam, Day 24 ([5]; topical 0.01% in sesame oil): 40.0% | % mice scored above 2 in clinical dermatitis exam, Day 26 ([5]; topical 0.01% in sesame oil): 40.0% | % mice scored above 2 in clinical dermatitis exam, Day 28 ([5]; topical 0.01% in sesame oil): 20.0% | % mice scored above 2 in clinical dermatitis exam, Day 30 ([5]; topical 0.01% in sesame oil): 10.0% | % animal-days >=2 ([5]; topical 0.1% in sesame oil): 16.3% | % animal-days >=3 ([5]; topical 0.1% in sesame oil): 0.0% | % mice scored above 2 in clinical dermatitis exam, Day 12 ([5]; topical 0.1% in sesame oil): 7.1% | % mice scored above 2 in clinical dermatitis exam, Day 14 ([5]; topical 0.1% in sesame oil): 10.0% | % mice scored above 2 in clinical dermatitis exam, Day 16 ([5]; topical 0.1% in sesame oil): 20.0% | % mice scored above 2 in clinical dermatitis exam, Day 18 ([5]; topical 0.1% in sesame oil): 80.0% | % mice scored above 2 in clinical dermatitis exam, Day 20 ([5]; topical 0.1% in sesame oil): 60.0% | % mice scored above 2 in clinical dermatitis exam, Day 22 ([5]; topical 0.1% in sesame oil): 40.0% | % mice scored above 2 in clinical dermatitis exam, Day 24 ([5]; topical 0.1% in sesame oil): 30.0% | % mice scored above 2 in clinical dermatitis exam, Day 26 ([5]; topical 0.1% in sesame oil): 10.0% | % mice scored above 2 in clinical dermatitis exam, Day 28 ([5]; topical 0.1% in sesame oil): 0.0% | % mice scored above 2 in clinical dermatitis exam, Day 30 ([5]; topical 0.1% in sesame oil): 0.0% | % animal-days >=2 ([5]; topical 1.0% in sesame oil): 9.7% | % animal-days >=3 ([5]; topical 1.0% in sesame oil): 0.0% | % mice scored above 2 in clinical dermatitis exam, Day 12 ([5]; topical 1.0% in sesame oil): 10.7% | % mice scored above 2 in clinical dermatitis exam, Day 14 ([5]; topical 1.0% in sesame oil): 20.0% | % mice scored above 2 in clinical dermatitis exam, Day 16 ([5]; topical 1.0% in sesame oil): 10.0% | % mice scored above 2 in clinical dermatitis exam, Day 18 ([5]; topical 1.0% in sesame oil): 70.0% | % mice scored above 2 in clinical dermatitis exam, Day 20 ([5]; topical 1.0% in sesame oil): 30.0% | % mice scored above 2 in clinical dermatitis exam, Day 22 ([5]; topical 1.0% in sesame oil): 10.0% | % mice scored above 2 in clinical dermatitis exam, Day 24 ([5]; topical 1.0% in sesame oil): 0.0% | % mice scored above 2 in clinical dermatitis exam, Day 26 ([5]; topical 1.0% in sesame oil): 0.0% | % mice scored above 2 in clinical dermatitis exam, Day 28 ([5]; topical 1.0% in sesame oil): 0.0% | % mice scored above 2 in clinical dermatitis exam, Day 30 ([5]; topical 1.0% in sesame oil): 0.0% | Ki (CYP3A4/5): ~0.5 µM | NOx Levels (% vs LPS Controls) ([6]; 13 mg/kg oral gavage): 30% | NOx Levels (% vs LPS Controls) ([6]; 25 mg/kg oral gavage): 18% | NOx Levels (% vs LPS Controls) ([6]; 50 mg/kg oral gavage): 16% | inhibition at 3 µM (CYP2D6): < 50%

— patent US9701709B2 (REATA PHARMACEUTICALS, INC., priority 2012, dated 2017)
